According to paper PMC3351833 (Biochemical Journal, 2011):

Legend:
Cx50 gap junctions = assay type: cell-based, mouse; settings: 1 μM peptide in both whole-cell patch pipettes; 1 μM ionomycin + 1.8 mM [Ca2+]o; Cx50-N2a cell pairs
CaM = settings: read-out: Kd of CDZ as CaM inhibitor; cited from earlier work

Compound	Share of the Ca2+/CaM-dependent decline in Cx50 Gj prevented (Cx50 gap junctions) [%]	Kd (CaM) [nM]
FKLYKCISFGGTEITTRSHVLTKKRL [SCx50p]	20	
Clc1ccc(C(c2ccc(Cl)cc2)n2cc[n+](CC(OCc3ccc(Cl)cc3Cl)c3ccc(Cl)cc3Cl)c2)cc1 (centres unmarked) [CDZ, calmidazolium]		~1000
